Here are results for 2 molecules from patent publication US20160367464A1, “METHOD AND COMPOSITION FOR IMPROVING SKIN CONDITIONS COMPRISING HUMAN PLACENTAL LACTOGEN AS AN ACTIVE INGREDIENT” (Regeron, Inc., priority 2012, published 2016).

“And” between values parts separate entries of the source, which are not always exact repeats. Equal values may be shown once.

Type in all cases: in vivo, mouse
Assay [1] deals with Nc/Nga mice with atopic dermatitis. The assay is described as follows: Skin thickness measurement on H&E stained slides, Nc/Nga mice with atopic dermatitis. The source says:
Upon the completion of all necessary treatments, affected areas of the dorsal skin was severed and fixed in 4% formaldehyde and set into a block using paraffin. The paraffin block was cut into 10 um thin slices using microtome, which were set on glass slides followed by stained with hematoxylin and eosin (H&E) before subject to the microscopic observation.
The tissue slides stained with H&E were photographed in order to measure the skin thickness ranging from exoderm, fat layer to the muscle layer using the appropriate software provided for the microscope utilized for the measurement of skin thickness.

The test system of assay [2] is Nc/Nga mice with short term atopic dermatitis. The assay is described as follows: Skin damage score, short term TNCB-induced atopic dermatitis. Conditions: short term (6 weeks); for Overall damage: sum of erythema, edema, erosion, dryness divided by number of animals (3). As for the experimental part:
(§1) Four weeks old male Nc/Nga mice were purchased from Orientbio Inc. (Korea) and bred at 24±2° C. and 50±10% relative humidity under 12 hours light/dark cycles. Animals were subject to 1-week acclimating period prior to the experiments.
First, the dorsal area of Nc/Nga mice was shaved, which was sensitized by applying 5% TNCB 150 µl. Then 1% TNCB solution made in olive oil was applied to the sensitized area once every week for 6 weeks.
(§2) Lipo-hPL (20 μg/ml) was topically applied 5 times per week for 6 weeks (short term) and 13 weeks (long term).
(§3) The skin damage was classified to 4 types as described in the Table 8. Based on the pictures taken every week for the inflamed dorsal area, the severity of the damage was evaluated and scored based on the 4 levels as shown below.

Assay [3] deals with Nc/Nga mice with long term atopic dermatitis. Put plainly: Skin damage score, long term TNCB-induced atopic dermatitis. How it is done:
as §1
The dorsal area of Nc/Nga mice was shaved, which was sensitized by applying 5% TNCB 150 µl. Then 1% TNCB solution made in olive oil was applied to the sensitized area for total 22 times over the period of 13 weeks.
as §2, §3

The test system of a further assay is serum IgE. Put plainly: Serum IgE measurement (ELISA) in Nc/Nga mice with atopic dermatitis. Conditions: TNCB-treated Nc/Nga mice, short term topical application (FIG. 13), Lipo-hPL 20 μg/ml. From the text:
Atopic individuals can have up to 10 times the normal level of IgE in their blood, even though this may not be a requirement for symptoms to occur as has been seen in asthmatics with normal IgE levels in their blood—recent research has shown that IgE production can occur locally in the nasal mucosa (Takhar P et al. (2005) J Immunol 174 (8): 5024-32). After the completion of the Lipo-hPL treatment for the induced inflammation, blood was drawn from the great saphenons vein and the serum was obtained by centrifugation. The serum IgE was measured using the IgE ELISA kit (GomaBiotech, Korea).

The test system of assay [4] is UVB-irradiated SKH-1 female nude mice. Put plainly: Wrinkle improving effects in UVB-irradiated SKH-1 hairless nude mice (Donald method). Details: key: —: No wrinkle formation; *: Slightly deep and thick wrinkle; **: Slightly to moderately deep and thick wrinkle; ***: Moderately deep and thick wrinkle; ****: Moderately to severely deep and thick wrinkle; *****: Severely deep and thick wrinkle. Conditions: SKH-1 nude mice, U.V. irradiation Yes, 0.1% retinoic acid in 15% EtOH. How it is done: The 4-week-old SKH-1 female nude mice were purchased from Douyul Biotech, Sungnam, Korea). The animal breeding chambers were kept at 24±0.2° C. and relative humidity at 50±10% in a 12-hr light/12-hr dark cycle. The animals were permitted free access to solid feed (Central Lab. Animal Inc., Seoul, Korea) and water sterilized by irradiation and acclimated for about 2 weeks before divided them into 7 groups by random selection.
In order to induce wrinkle formation on the backside of the nude mice, UVB was irradiated to the mice three times a week for 11 weeks using the VLX-3W stimulator (Vilber Lourmat, Marne la Vallee, France) in the protocol: 30 mJ/cm^2 for the weeks 1 and 2, 40 mJ/cm^2 for the weeks 3 and 4, 50 mJ/cm^2 for the weeks 5 through 9, and 60 mJ/cm^2 for the weeks 10 and 11. […]
The wrinkle-improving effect was evaluated according to the Donald method (Hyun-Seok Kim et. al, Mech. Ageing Dev. 126:1255-61, 2005). […] In the present invention, the effects of Lipo-hPL and other skin-conditioning agents on wrinkle formation were evaluated by observing changes of the thickness and depth of wrinkles before and after treatments.

The mark [5] stands for this setting: score 0-3 per animal summed over 3 animals, Lipo-hPL 20 μg/ml topical 5 times per week.
The mark [6] stands for this setting: long term (13 weeks), scores summed over 2 animals, Lipo-hPL 20 μg/ml topical 5 times per week.

With `C=CC[C@@H]1/C=C(\C)C[C@H](C)C[C@H](OC)[C@H]2O[C@@](O)(C(=O)C(=O)N3CCCC[C@H]3C(=O)O[C@H](/C(C)=C/[C@@H]3CC[C@@H](O)[C@H](OC)C3)[C@H](C)[C@@H](O)CC1=O)[C@H](C)C[C@@H]2OC` [Tacrolimua (FK506), Tacrolimua], the “Exodermal thickness of animals treated with TNCB only relative to treated animals” value in assay [1] is “approximately 10 folds”. Besides, in assay [1] (TNCB-treated Nc/Nga mice, long term topical application (FIG. 16)), the “Average skin thickness (epidermis, dermis and subcutaneous layer)” value is given as 408.0±23.4 μm. For the same molecule, the Dryness in assay [2] (setting [5]) and in assay [3] (setting [6]) was 3 each time. The Edema turned out to be 0 in assay [2] (setting [5]) and 1.5 in assay [3] (setting [6]). Also, the Erosion in assay [2] (setting [5]) was 3; in assay [3] (setting [6]), 3.5. Besides, the Erythema worked out at 3 in assay [2] (setting [5]) and 1.5 in assay [3] (setting [6]). For the same molecule, the Overall damage in assay [2] was 3.0; in assay [2] (listed as FK506), 3.0±0.3; in assay [3] (long term (13 weeks), sum of erythema, edema, erosion, dryness divided by number of animals (2)) it was 4.75 and 4.8. Also, the “Long term skin damages score” value in assay [3] (long term, out of 10 as the most severe damage) was 2.4±0.7. The molecule further registered an IgE in the assay with serum IgE of 107.1 ng/mL.

Consider `CC1=C(/C=C/C(C)=C/C=C/C(C)=C/C(=O)O)C(C)(C)CCC1` [Retinoic acid, retinoic acid], for which the “Changes in wrinkle depth and thickness” value in assay [4] (Appendix Table 5, topical 11 weeks, 20 μg/ml Lipo-hPL, 4.1 μg/ml Lipo-his-hPL) was “**”; in assay [4] (topical 5 times a week for 11 weeks, 20 µg/ml Lipo-hPL, 4 µg/ml Lipo-his-hPL), “**”.
